Data set [1] is described as follows: Efflux ratio in human Caco-2 cells. The format is ADME, cell-based. (Passage across Caco-2 layers is used to estimate intestinal permeability.)
A short description of data set [2]: Metabolic stability in human hepatocytes assessed as intrinsic clearance measured per 10^6 cells. The format is ADME, cell-based, Hepatocyte. Conditions: read-out: CLH.
A short description of data set [3]: Clearance in Sprague-Dawley rat at 0.5 mg/kg, iv measured up to 24 hrs by LC-MS/MS analysis. In kind it is ADME, organism-based. The following applies: in vivo.
Another data set deals with CYP2C9 (Homo sapiens, UniProt P11712). Nature of the data set: Time dependent inhibition of CYP2C9 (unknown origin) at 30 uM measured after 30 mins relative to control. In kind it is ADME. Conditions: read-out: TDI.
The target in data set [4] is T1, CYP3A4 (Homo sapiens, UniProt P08684). Nature of the data set: Time dependent inhibition of CYP3A4 (unknown origin) using midazolam as substrate at 30 uM measured after 30 mins relative to control. The format is ADME. The following applies: probe midazolam, read-out: TDI.
Data set [5] addresses T1, CYP3A4. Nature of the data set: Time dependent inhibition of CYP3A4 (unknown origin) using testosterone as substrate at 30 uM measured after 30 mins relative to control. In kind it is ADME. Conditions: probe testosterone, read-out: TDI.
The next data set concerns the target T2, Cytochrome P450 1A2 (Homo sapiens, UniProt P05177).
T2 sequence (P05177 whole entry): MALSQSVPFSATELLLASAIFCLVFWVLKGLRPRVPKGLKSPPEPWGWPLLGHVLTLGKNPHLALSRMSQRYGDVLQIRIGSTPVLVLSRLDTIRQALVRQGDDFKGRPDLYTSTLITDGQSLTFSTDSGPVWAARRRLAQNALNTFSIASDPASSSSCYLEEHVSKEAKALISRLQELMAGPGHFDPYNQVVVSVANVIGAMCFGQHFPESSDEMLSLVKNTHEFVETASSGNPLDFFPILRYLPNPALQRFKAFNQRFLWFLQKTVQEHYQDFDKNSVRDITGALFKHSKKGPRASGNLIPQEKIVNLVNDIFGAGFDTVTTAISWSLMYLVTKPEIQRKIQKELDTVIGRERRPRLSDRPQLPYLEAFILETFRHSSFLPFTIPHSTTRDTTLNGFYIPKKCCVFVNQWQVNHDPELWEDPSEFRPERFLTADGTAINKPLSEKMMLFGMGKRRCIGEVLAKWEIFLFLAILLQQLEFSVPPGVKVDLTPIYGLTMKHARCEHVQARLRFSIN
Nature of the data set: Inhibition of CYP1A2 (unknown origin) measured after 30 mins. The format is ADME.

In a further data set the target is T3, Cytochrome P450 2B6 (Homo sapiens, UniProt P20813).
T3 sequence (P20813 whole entry): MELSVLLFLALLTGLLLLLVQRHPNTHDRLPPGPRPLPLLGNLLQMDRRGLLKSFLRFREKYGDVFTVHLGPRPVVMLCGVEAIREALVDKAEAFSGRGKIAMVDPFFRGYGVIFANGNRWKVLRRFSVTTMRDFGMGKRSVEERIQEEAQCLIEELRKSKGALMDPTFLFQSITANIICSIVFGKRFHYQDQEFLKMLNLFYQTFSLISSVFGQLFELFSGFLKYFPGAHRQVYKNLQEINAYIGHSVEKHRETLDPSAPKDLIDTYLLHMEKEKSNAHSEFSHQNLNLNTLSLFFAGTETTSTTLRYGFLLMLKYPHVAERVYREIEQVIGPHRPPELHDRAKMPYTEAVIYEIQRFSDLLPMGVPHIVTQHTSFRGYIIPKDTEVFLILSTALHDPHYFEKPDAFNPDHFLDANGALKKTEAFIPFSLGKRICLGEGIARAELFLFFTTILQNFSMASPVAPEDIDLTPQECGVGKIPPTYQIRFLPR
Description: Inhibition of CYP2B6 (unknown origin) measured after 30 mins. The format is ADME.

A further data set concerns the target Cytochrome P450 2C9 (Homo sapiens, UniProt P11712). Description: Inhibition of CYP2C9 (unknown origin) measured after 30 mins. The format is ADME.
Data set [6] in a line: Selectivity ratio, ratio of Ki for MERTK (unknown origin) to Ki for AXL (unknown origin).
A short description of data set [7]: Selectivity ratio, ratio of Ki for DRAK1 (unknown origin) to Ki for AXL (unknown origin).
Data set [8] is described as follows: Selectivity ratio, ratio of Ki for HPK1 (unknown origin) to Ki for AXL (unknown origin).
A short description of data set [9]: Selectivity ratio, ratio of Ki for TRKA (unknown origin) to Ki for AXL (unknown origin).
Data set [10] concerns 786-0. Nature of the data set: Anti-tumor activity against human 786-0 cells xenografted in mouse model assessed as tumor growth inhibition at 10 mg/kg, po once daily for 15 days. In kind it is functional, organism-based. The following applies: time 15.0 day. Background: In xenograft studies the graft and the host belong to different species.
Data set [11] has as its system 786-0. Description: Anti-tumor activity against human 786-0 cells xenografted in mouse model assessed as increase in soluble AXL level in plasma at 30 mg/kg, po once daily for 15 days. The format is functional, organism-based. The following applies: time 15.0 day.
Data set [12] is described as follows: Toxicity in mouse xenografted with human 786-0 cells assessed as body weight at 30 mg/kg, po once daily for 15 days. Conditions: in vivo, 360 h, time 15 day. In kind it is organism-based.
A short description of data set [13]: Toxicity in mouse xenografted with human 786-0 cells assessed as body weight in presence of sunitinib at 30 mg/kg, po once daily for 15 days. The following applies: in vivo, 360 h, time 15 day. The format is organism-based.
Data set [14] in a line: Toxicity in mouse xenografted with human 786-0 cells assessed as body weight in presence of sunitinib at 10 mg/kg, po once daily for 15 days. The format is organism-based. The following applies: in vivo, 360 h, time 15 day.
Data set [15] can be described thus: Tmax in human (healthy individuals) at 10 mg, single oral dose. The format is ADME. The following applies: in vivo.
Data set [16] can be described thus: Tmax in human (healthy individuals) at 30 mg, single oral dose. Conditions: in vivo. In kind it is ADME.
The nature of data set [17]: Tmax in human (healthy individuals) at 90 mg, single oral dose. The format is ADME. The following applies: in vivo.
Data set [18] can be described thus: Tmax in human (healthy individuals) at 270 mg, single oral dose. The format is ADME. Conditions: in vivo.
Data set [19] can be described thus: Cmax in human (healthy individuals) at 30 mg, single oral dose measured uo to 120 hrs. In kind it is ADME. Conditions: in vivo.
Data set [20] in a line: Cmax in human (healthy individuals) at 90 mg, single oral dose measured uo to 120 hrs. In kind it is ADME. Conditions: in vivo.

The source made the active and inactive calls. No cut-off for these calls is given here.

T1 sequence (P08684 whole entry): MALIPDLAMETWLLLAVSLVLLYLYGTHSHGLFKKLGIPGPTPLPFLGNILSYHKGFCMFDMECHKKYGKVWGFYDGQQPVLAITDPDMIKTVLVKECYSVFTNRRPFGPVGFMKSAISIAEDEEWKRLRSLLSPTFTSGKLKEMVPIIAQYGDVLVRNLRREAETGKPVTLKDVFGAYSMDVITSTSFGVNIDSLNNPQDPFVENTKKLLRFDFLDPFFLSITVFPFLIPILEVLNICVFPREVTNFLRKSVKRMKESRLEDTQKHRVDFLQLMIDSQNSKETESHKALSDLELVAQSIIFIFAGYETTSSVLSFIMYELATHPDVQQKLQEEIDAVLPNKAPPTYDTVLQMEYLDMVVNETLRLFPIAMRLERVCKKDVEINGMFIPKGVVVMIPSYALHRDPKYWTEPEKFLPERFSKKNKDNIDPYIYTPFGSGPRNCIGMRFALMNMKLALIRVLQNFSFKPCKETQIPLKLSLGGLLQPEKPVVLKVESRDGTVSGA
Sequence of CYP2C9 (P11712 whole entry): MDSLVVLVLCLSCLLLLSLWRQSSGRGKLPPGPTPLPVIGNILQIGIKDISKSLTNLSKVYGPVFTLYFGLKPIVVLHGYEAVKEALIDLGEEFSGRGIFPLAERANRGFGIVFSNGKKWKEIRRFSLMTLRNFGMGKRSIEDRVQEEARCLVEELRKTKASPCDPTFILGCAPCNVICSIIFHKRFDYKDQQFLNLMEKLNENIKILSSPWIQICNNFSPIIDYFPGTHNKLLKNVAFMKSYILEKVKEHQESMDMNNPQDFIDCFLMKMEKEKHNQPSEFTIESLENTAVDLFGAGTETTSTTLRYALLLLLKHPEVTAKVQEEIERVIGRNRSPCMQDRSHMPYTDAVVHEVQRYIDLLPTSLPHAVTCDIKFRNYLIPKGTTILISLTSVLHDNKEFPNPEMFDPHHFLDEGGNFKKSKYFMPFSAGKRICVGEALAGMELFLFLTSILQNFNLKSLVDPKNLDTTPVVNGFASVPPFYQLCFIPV
Sequence of Cytochrome P450 2C9 (P11712 whole entry): as above

As a reminder, the efflux ratio is a quotient of directional permeabilities that is used to spot active efflux. One may read the clearance as the rate of elimination divided by the concentration. A low value points to a low capacity for elimination. The term IC50 denotes the concentration at which inhibition is half-maximal. By Tmax is commonly meant the time from dosing to the highest level. A word on the Cmax: it is the peak of the concentration-time curve. For the molecule `Cc1cccnc1-c1ccc(-c2n[nH]c3ncc(-c4ccc5c(c4)CC[C@@H](N4C6COCC4C6)CC5)cc23)nc1`, the efflux ratio in data set [1] stood at 1.9. Moreover, the hepatocyte CLint in data set [2] amounted to 1.8 µL/min/1e6 cells. In [3], this molecule had a clearance of 10.8 mL/min/kg. Besides, the results for the inhibition at 0.5 h, 30 µM on CYP2C9, on CYP3A4 [4] and on CYP3A4 [5] were 10%, 16% and 16%, respectively. For the same molecule, the IC50 is more than 100 µM on Cytochrome P450 1A2, more than 100 µM on Cytochrome P450 2B6 and 91 µM against Cytochrome P450 2C9. Moreover, the Ratio Ki was 880 in data set [6], 47 in data set [7], 280 in [8] and 330 in [9]. Further, in the data set with 786-0 [10], the result was inactive. Further, the outcome with 786-0 [11] was Active. For the same molecule, the Activity entry in data set [12], in [13] and in data set [14] was “Non-toxic” each time. Moreover, the Tmax in data set [15] worked out at 6 h; in data set [16], 8 h; in [17], 8 h; in data set [18], 8 h. For the same molecule, the figures for the Cmax in data set [19] and in data set [20] were 12 ng/mL and 40 ng/mL, respectively.

(Values after ChEMBL document CHEMBL6134930, “Discovery of AB801, a Potent and Selective Inhibitor of AXL Receptor Tyrosine Kinase for Use in Cancer Therapy” (J Med Chem, 2025).)
